Experimental data as given in patent US6737383B1, “Herbicidal oxadiazolidines” (priority 1999, dated 2004).

Experiments:
maize hybrid P33G26 = experiment: Test G maize injury with safener-treated seed; conditions: in vivo
Outline: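 Maize hybrid P33G26 seed, treated with dichlormid, fenchlorazole-ethyl or naphthalic anhydride or left untreated, was sown in soil pots, then sprayed pre-emergence with several compound rates at 310 L/ha. Plants grew in a greenhouse (14 h day, about 27/24 °C day/night), with 4–5 replicates. Injury was scored visually against untreated controls 28 days after application.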

corn = experiment: Test B pre/postemergence corn; format: in vivo, Zea mays
Outline: (§1)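 Test chemicals in a non-phytotoxic solvent mixture with surfactant were sprayed preemergence onto planted seeds and postemergence onto plants 2 to 18 cm tall (1- to 4-leaf stage). After twelve to sixteen days in a greenhouse, injury was visually rated against untreated controls from 0 (no effect) to 10 (complete control).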

crabgrass = experiment: Test B pre/postemergence crabgrass; format: in vivo, Digitaria sanguinalis
Outline: as §1

velvetleaf = experiment: Test B pre/postemergence velvetleaf; format: in vivo, Abutilon theophrasti
Outline: as §1

sugar beet = experiment: Test B pre/postemergence sugar beet; format: in vivo, Beta vulgaris
Outline: as §1

bamyardgrass = experiment: Test B flood test barnyardgrass; format: in vivo, Echinochloa crus-galli
Outline: (§2)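 Plants were grown to the 2-leaf stage before treatment with test chemical, then held in a greenhouse for twelve to sixteen days. Injury was visually rated against untreated controls on a 0–10 scale, where 0 is no effect and 10 is complete control.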

wheat = experiment: Test B pre/postemergence wheat; format: in vivo, Triticum aestivum
Outline: as §1

surinam grass = experiment: Test B pre/postemergence surinam grass; format: in vivo, Brachiaria decumbens
Outline: as §1

giant foxtail = experiment: Test B pre/postemergence giant foxtail; format: in vivo, Setaria faberii
Outline: as §1

soybean = experiment: Test B pre/postemergence soybean; format: in vivo, Glycine max
Outline: as §1

duck salad = experiment: Test B flood test duck salad; format: in vivo, Heteranthera limosa
Outline: as §2

cocklebur = experiment: Test B pre/postemergence cocklebur; format: in vivo, Xanthium strumarium
Outline: as §1

bedstraw = experiment: Test B pre/postemergence bedstraw; format: in vivo, Galium aparine
Outline: as §1

rape = experiment: Test B pre/postemergence rape; format: in vivo, Brassica napus
Outline: as §1

rice = experiment: Test B flood test rice; format: in vivo, Oryza sativa
Outline: as §2

pigweed = experiment: Test B pre/postemergence pigweed; format: in vivo, Amaranthus retroflexus
Outline: as §1

morningglory = experiment: Test B pre/postemergence morningglory; format: in vivo, Ipomoea hederacea
Outline: as §1

purple nutsedge = experiment: Test B pre/postemergence purple nutsedge; format: in vivo, Cyperus rotundus; conditions: Postemergence
Outline: as §1

wild oat = experiment: Test B pre/postemergence wild oat; format: in vivo, Avena fatua
Outline: as §1

blackgrass = experiment: Test B pre/postemergence blackgrass; format: in vivo, Alopecurus myosuroides
Outline: as §1

smallflower flatsedge = experiment: Test B flood test smallflower flatsedge; format: in vivo, Cyperus difformis
Outline: as §2

[1] = Preemergence, Rate 62 g/ha, scale of 0 to 10 where 0 is no effect and 10 is complete control
[2] = Preemergence, Rate 250 g/ha, scale of 0 to 10 where 0 is no effect and 10 is complete control
[3] = Preemergence, Rate 500 g/ha, scale of 0 to 10 where 0 is no effect and 10 is complete control
[4] = Rate 62 g/ha, Postemergence, scale of 0 to 10 where 0 is no effect and 10 is complete control
[5] = Rate 125 g/ha, Postemergence, scale 0 to 10
[6] = Rate 125 g/ha, Preemergence, scale of 0 to 10 where 0 is no effect and 10 is complete control
[7] = Rate 500 g/ha, Postemergence, scale 0 to 10, 0 no effect, 10 complete control
[8] = Rate 62 g/ha, headed Pre-emergence (flood test species), scale 0 to 10 (0 no effect, 10 complete control)
[9] = Rate 125 g/ha, Pre-emergence, flood test species, scale 0 to 10 where 0 is no effect and 10 is complete control
[10] = Rate 250 g/ha, Pre-emergence, flood-test species, scale 0 to 10, 0 is no effect, 10 is complete control
[11] = Rate 500 g/ha, Pre-emergence, flood test species, scale 0 to 10 (0 no effect, 10 complete control)

For `O=C1OC(=O)c2cccc3cccc1c23` [naphthalic anhydride, reference compound], the “Effect of safener seed treatment on corn germination” value (maize hybrid P33G26) was “severely inhibited corn germination” and the “Safening effect on maize injury” value (maize hybrid P33G26) was “safened against the herbicide damage”.

With `CC(C)N(C(=O)n1oc(=O)n(CCC2OCCCO2)c1=O)c1ccc(F)cc1` [Compound 255] the “Corn plant response rating” value (corn; [1]) was 0, the “Corn plant response rating” value (corn; [2]) was 0 and the “Plant response rating, Corn” value (corn; [3]) was 8. For the same molecule, the “Corn plant response rating” value (corn; [4]) was 0, the “Corn plant response rating” value (corn; [5]) was 0 and the “Corn plant response rating” value (corn; [6]) was 0. The “Plant response rating (0 to 10; 0 is no effect, 10 is complete control), Corn” value (corn; Rate 250 g/ha, Postemergence) was 0, the “Corn plant response rating” value (corn; [7]) was 6 and the “Crabgrass plant response rating” value (crabgrass; [1]) was 0. The “Crabgrass plant response rating” value (crabgrass; [2]) was 7, the “Plant response rating, Crabgrass” value (crabgrass; [3]) was 9 and the “Crabgrass plant response rating” value (crabgrass; [6]) was 3. The “Plant response rating (0 to 10; 0 is no effect, 10 is complete control), Crabgrass” value (crabgrass; Rate 250 g/ha, Postemergence) was 2, the “Crabgrass plant response rating” value (crabgrass; [7]) was 3 and the “Velvetleaf plant response rating” value (velvetleaf; [1]) was 0. For the same molecule, the “Velvetleaf plant response rating” value (velvetleaf; [2]) was 5, the “Plant response rating, Velvetleaf” value (velvetleaf; [3]) was 7 and the “Velvetleaf plant response rating” value (velvetleaf; [6]) was 0. The “Velvetleaf plant response rating” value (velvetleaf; [7]) was 1, the “Sugarbeets plant response rating” value (sugar beet; [1]) was 0 and the “Sugarbeets plant response rating” value (sugar beet; [2]) was 6. For the same molecule, the “Plant response rating, Sugarbeets” value (sugar beet; [3]) was 7, the “Sugarbeets plant response rating” value (sugar beet; [6]) was 3 and the “Sugarbeets plant response rating” value (sugar beet; [7]) was 3. The “Barnyardgrass plant response rating” value (bamyardgrass; [8]) was 0, the “Barnyardgrass plant response rating” value (bamyardgrass; [9]) was 0 and the “Barnyardgrass plant response rating” value (bamyardgrass; [10]) was 0. The “Barnyardgrass plant response rating” value (bamyardgrass; [11]) was 0, the “Wheat plant response rating” value (wheat; [1]) was 0 and the “Wheat plant response rating” value (wheat; [2]) was 4. For the same molecule, the “Plant response rating, Wheat” value (wheat; [3]) was 8, the “Wheat plant response rating” value (wheat; [6]) was 0 and the “Wheat plant response rating” value (wheat; [7]) was 8. The “B. signalgrass plant response rating” value (surinam grass; [1]) was 0, the “B. signalgrass plant response rating” value (surinam grass; [2]) was 3 and the “Plant response rating, B. signalgrass” value (surinam grass; [3]) was 9. For the same molecule, the “B. signalgrass plant response rating” value (surinam grass; [4]) was 0, the “B. signalgrass plant response rating” value (surinam grass; Rate 125 g/ha, Postemergence, scale 0 (no effect) to 10 (complete control)) was 0 and the “B. signalgrass plant response rating” value (surinam grass; [6]) was 2. The “Plant response rating (0 to 10; 0 is no effect, 10 is complete control), B. signalgrass” value (surinam grass; Rate 250 g/ha, Postemergence) was 2, the “B. signalgrass plant response rating” value (surinam grass; [7]) was 8 and the “Giant foxtail plant response rating” value (giant foxtail; [1]) was 8. The “Giant foxtail plant response rating” value (giant foxtail; [2]) was 10, the “Plant response rating, Giant foxtail” value (giant foxtail; [3]) was 10 and the “Giant foxtail plant response rating” value (giant foxtail; [6]) was 9. For the same molecule, the “Plant response rating (0 to 10; 0 is no effect, 10 is complete control), Giant foxtail” value (giant foxtail; Rate 250 g/ha, Postemergence) was 6, the “Giant foxtail plant response rating” value (giant foxtail; [7]) was 8 and the “Soybean plant response rating” value (soybean; [1]) was 0. For the same molecule, the “Soybean plant response rating” value (soybean; [2]) was 0, the “Plant response rating, Soybean” value (soybean; [3]) was 0 and the “Soybean plant response rating” value (soybean; [6]) was 0. For the same molecule, the “Soybean plant response rating” value (soybean; [7]) was 6, the “Ducksalad plant response rating” value (duck salad; [8]) was 0 and the “Ducksalad plant response rating” value (duck salad; [9]) was 0. The “Ducksalad plant response rating” value (duck salad; [10]) was 0, the “Ducksalad plant response rating” value (duck salad; [11]) was 0 and the “Cocklebur plant response rating” value (cocklebur; [1]) was 0. For the same molecule, the “Cocklebur plant response rating” value (cocklebur; [2]) was 0, the “Plant response rating, Cocklebur” value (cocklebur; [3]) was 0 and the “Cocklebur plant response rating” value (cocklebur; [4]) was 0. The “Cocklebur plant response rating” value (cocklebur; [5]) was 0, the “Cocklebur plant response rating” value (cocklebur; [6]) was 0 and the “Plant response rating (0 to 10; 0 is no effect, 10 is complete control), Cocklebur” value (cocklebur; Rate 250 g/ha, Postemergence) was 0. The “Cocklebur plant response rating” value (cocklebur; [7]) was 2, the “Bedstraw plant response rating” value (bedstraw; [1]) was 0 and the “Bedstraw plant response rating” value (bedstraw; [2]) was 0. For the same molecule, the “Plant response rating, Bedstraw” value (bedstraw; [3]) was 0, the “Bedstraw plant response rating” value (bedstraw; [4]) was 0 and the “Bedstraw plant response rating” value (bedstraw; [5]) was 0. The “Bedstraw plant response rating” value (bedstraw; [6]) was 0, the “Plant response rating (0 to 10; 0 is no effect, 10 is complete control), Bedstraw” value (bedstraw; Rate 250 g/ha, Postemergence) was 2 and the “Bedstraw plant response rating” value (bedstraw; [7]) was 8. For the same molecule, the “Rape plant response rating” value (rape; [1]) was 0, the “Rape plant response rating” value (rape; [2]) was 0 and the “Plant response rating, Rape” value (rape; [3]) was 5. For the same molecule, the “Rape plant response rating” value (rape; [6]) was 0, the “Plant response rating (0 to 10; 0 is no effect, 10 is complete control), Rape” value (rape; Rate 250 g/ha, Postemergence) was 3 and the “Rape plant response rating” value (rape; [7]) was 3. For the same molecule, the “Rice plant response rating” value (rice; [8]) was 0, the “Rice plant response rating” value (rice; [9]) was 0 and the “Rice plant response rating” value (rice; [10]) was 0. For the same molecule, the “Rice plant response rating” value (rice; [11]) was 0, the “Redroot pigweed plant response rating” value (pigweed; [1]) was 0 and the “Redroot pigweed plant response rating” value (pigweed; [2]) was 5. The “Plant response rating, Redroot pigweed” value (pigweed; [3]) was 10, the “Redroot pigweed plant response rating” value (pigweed; [6]) was 2 and the “Plant response rating (0 to 10; 0 is no effect, 10 is complete control), Redroot pigweed” value (pigweed; Rate 250 g/ha, Postemergence) was 2. For the same molecule, the “Redroot pigweed plant response rating” value (pigweed; [7]) was 8, the “Morningglory plant response rating” value (morningglory; [1]) was 0 and the “Morningglory plant response rating” value (morningglory; [2]) was 0. The “Plant response rating, Morningglory” value (morningglory; [3]) was 0, the “Morningglory plant response rating” value (morningglory; [6]) was 0 and the “Plant response rating (0 to 10; 0 is no effect, 10 is complete control), Morningglory” value (morningglory; Rate 250 g/ha, Postemergence) was 8. For the same molecule, the “Morningglory plant response rating” value (morningglory; [7]) was 8, the “Plant response rating (0 to 10; 0 is no effect, 10 is complete control), Nutsedge” value (purple nutsedge; Rate 250 g/ha) was 0 and the “Nutsedge plant response rating” value (purple nutsedge; Rate 500 g/ha, scale 0 to 10, 0 no effect, 10 complete control) was 6. For the same molecule, the “Wild oats plant response rating” value (wild oat; [1]) was 0, the “Wild oats plant response rating” value (wild oat; [2]) was 5 and the “Plant response rating, Wild oats” value (wild oat; [3]) was 10. For the same molecule, the “Wild oats plant response rating” value (wild oat; [6]) was 2, the “Wild oats plant response rating” value (wild oat; [7]) was 4 and the “Blackgrass plant response rating” value (blackgrass; [1]) was 10. The “Blackgrass plant response rating” value (blackgrass; [2]) was 10, the “Plant response rating, Blackgrass” value (blackgrass; [3]) was 10 and the “Blackgrass plant response rating” value (blackgrass; [4]) was 0. For the same molecule, the “Blackgrass plant response rating” value (blackgrass; [5]) was 2, the “Blackgrass plant response rating” value (blackgrass; [6]) was 10 and the “Plant response rating (0 to 10; 0 is no effect, 10 is complete control), Blackgrass” value (blackgrass; Rate 250 g/ha, Postemergence) was 7. The “Blackgrass plant response rating” value (blackgrass; [7]) was 9, the “S. Flatsedge plant response rating” value (smallflower flatsedge; [8]) was 0 and the “S. Flatsedge plant response rating” value (smallflower flatsedge; [9]) was 0. For the same molecule, the “S. Flatsedge plant response rating” value (smallflower flatsedge; [10]) was 0 and the “S. Flatsedge plant response rating” value (smallflower flatsedge; [11]) was 0.
